We go through 16 compounds from patent US9266924B2, “Cyclopentapeptide derivatives and uses thereof” (TECHNISCHE UNIVERSITÄT MÜNCHEN, priority 2010, dated 2016).

Where a SMILES comes first, the peptide text is derived from it. Side-chain parts run from the residue outwards. [ ]: non-standard residue; d: D form. The star is where a group is joined. DOTA(Ga) = O=C1CN2CCN3CCN(CC(=O)*)CCN(CC2)CC(=O)[O][Ga]([O]1)[O]C(=O)C3; DOTA(In) = O=C1CN2CCN3CCN(CC(=O)*)CCN(CC2)CC(=O)[O][In]([O]1)[O]C(=O)C3; DOTA = O=C(O)CN1CCN(CC(=O)O)CCN(CC(=O)*)CCN(CC(=O)O)CC1; 2Nal = N[C@@H](Cc1ccc2ccccc2c1)C(=O)O; dNMeOrn = CN[C@H](CCCN)C(=O)O; 4Abz = Nc1ccc(C(=O)O)cc1; AEEA = NCCOCCOCC(=O)O; Ava = NCCCCC(=O)O; βAla = NCCC(=O)O

T1 sequence (P61073 whole entry): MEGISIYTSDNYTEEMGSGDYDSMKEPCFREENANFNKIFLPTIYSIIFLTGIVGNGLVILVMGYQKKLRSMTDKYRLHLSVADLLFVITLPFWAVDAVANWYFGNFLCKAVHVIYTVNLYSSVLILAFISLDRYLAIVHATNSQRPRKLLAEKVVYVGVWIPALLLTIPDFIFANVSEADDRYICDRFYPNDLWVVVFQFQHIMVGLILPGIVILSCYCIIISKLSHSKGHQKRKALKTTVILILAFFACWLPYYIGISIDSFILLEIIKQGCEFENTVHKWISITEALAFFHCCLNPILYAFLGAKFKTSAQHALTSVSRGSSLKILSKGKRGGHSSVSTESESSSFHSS

The first test has as its target T1, human-CXCR4 (Homo sapiens, UniProt P61073).
T1 construct: tested first at Jurkat cells that endogenously express the CXCR4 receptor; endogenous in cells; host or cells: Jurkat cells (whole cells in suspension)
Description: Competition binding assay on Jurkat cells with 125I-CPCR4 as radiotracer. The following applies: IC50 (Exemplary Binding Study A), Jurkat cells, 125I-CPCR4 tracer, n=4. Here is the method: For receptor binding assays cells may be resuspended in PBS/0.2% BSA. A total of 200 μl of the suspension containing 400,000 Jurkat cells may be incubated with 25 μl of the tracer solution (containing 3.1 kBq, approx. 0.1 nM) and 25 μl of the diluent or the competitor at different concentrations. […] After shaking for 2 h at room temperature, the incubation may be terminated by centrifugation at 1300 rpm for 5 min, Cell pellets may be washed once with cold PBS followed by a second centrifugation step. Cell bound radioactivity may be determined by using a gamma counter. Experiments may be repeated 2-3 times in triplicates. IC50 values of the compounds may be calculated by nonlinear regression using GraphPad Prism (GraphPad Prism 4.0 Software, Inc., San Diego, Calif., USA). Each data point may be the average of three determinations.
Cells were resuspended in 0.2% PBS/0.2% BSA. A total of 200 μL of the suspension containing 2×10^6 Jurkat cells/ml or 400000 cell/200 μl were incubated with 25 μL of the tracer solution (containing 100,000 cpm, approx. 0.1 nM) and 25 μL of competitor dissolved in ultra pure H2O or, if necessary, up to 20% DMSO at different concentrations. The tracer concentration was varied from 5 to 500 pM.
After 2 h at room temperature, the incubation was terminated by centrifugation at 2000 rpm for 5 min. Cell pellets were washed once with 400 μL cold PBS. Cell bound radioactivity was determined by using a gamma counter. Experiments were repeated three times in triplicates. IC50 values of the peptides were calculated by nonlinear regression using GraphPad Prism (GraphPad Prism 4.0 Software, San Diego, Calif., USA).
The cell concentration was determined with a Casy cell counter (500 cell suspension in 10 ml Casy solution (Innovartis AG, Casy technology). The desired cell suspension volume was transferred into an Eppendorf tube, centrifuged, the supernatant was discarded and the pellet was resuspended in 20 ml 0.2% PBS-BSA-buffer.
Subsequently, the tubes were placed on a shaker for 2 h (200 mot/min). Thereafter, the tubes were centrifuged for 5 min at 2000 rpm and the supernatant carefully removed. The pellets were washed with 400 μl PBS and the tubes were again centrifuged for 5 min at 2000 rpm. After the supernatant was carefully removed, the tubes were measured in a gamma counter. All data were analyzed with a suitable software package, i.e. GraphPad Prism 4 with the following parameters: Equation: Sigmoidal dose-response, Y=Bottom+(Top−Bottom)/(1+10^((Log EC50−X))); X is the logarithm of concentration; Y is the response; Y starts at bottom and goes to top with a sigmoid shape.
As to `CN1C(=O)[C@@H](Cc2ccc(O)cc2)NC(=O)CNC(=O)[C@H](Cc2ccc3ccccc3c2)NC(=O)[C@H](CCCNC(=N)N)NC(=O)[C@H]1CCCNC(=O)c1ccc(CNC(=O)CN2CCN(CC(=O)O)CCN(CC(=O)O)CCN(CC(=O)O)CC2)cc1` (single isomer, unassigned) [Compound 9, yorn′(AMBS, DOTA, Ga)RNalG], the IC50 (usually the point on the concentration scale where inhibition reaches its midpoint) is 4.78 ± 0.73 nM.

Staying with this test, now noted: IC50 [nM] (Binding Data), Jurkat cells, 125I-CPCR4 tracer, 2 h at room temperature.
Take `CN1C(=O)[C@@H](Cc2ccc(O)cc2)NC(=O)CNC(=O)[C@H](Cc2ccc3ccccc3c2)NC(=O)[C@H](CCCNC(=N)N)NC(=O)[C@H]1CCCNC(=O)c1ccc(CNC(=O)CN2CCN(CC(=O)O)CCN(CC(=O)O)CCN(CC(=O)O)CC2)cc1` (single isomer, unassigned) [Compound 9, yorn′(AMBS, DOTA, Ga)RNalG]: the IC50 amounted to 7 ± 4.25 nM.

Still in this test, the particulars now being: Jurkat cells, 125I-CPCR4 tracer, 2 h at room temperature; read-out: IC50 [nM] (Binding Data).
As for `CN1C(=O)[C@@H](Cc2ccc(O)cc2)NC(=O)CNC(=O)[C@H](Cc2ccc3ccccc3c2)NC(=O)[C@H](CCCNC(=N)N)NC(=O)[C@H]1CCCNC(=O)CN1CCN2CCN3CCN(CC1)CC(=O)[O][In]([O]C(=O)C2)[O]C(=O)C3` [Compound 20, yorn′(DOTA, In)RNalG] (cyclo([2Nal]G[dY][dNMeOrn](DOTA(In))R)), the IC50 was more than 1000 nM.

Regarding “yorn′(ABS, betaAla, DOTA, In)RNalG [Compound 4]”, the IC50 was 30.4 ± 3.68 nM.

`CN1C(=O)[C@@H](Cc2ccc(O)cc2)NC(=O)CNC(=O)[C@H](Cc2ccc3ccccc3c2)NC(=O)[C@H](CCCNC(=N)N)NC(=O)[C@H]1CCCNC(=O)c1ccc(NC(=O)CN2CCN(CC(=O)O)CCN(CC(=O)O)CCN(CC(=O)O)CC2)cc1` [Compound 15, yorn′(ABS, DOTA)RNalG]: the IC50 was determined as 335 nM.

Turning to `CN1C(=O)[C@@H](Cc2ccc(O)cc2)NC(=O)CNC(=O)[C@H](Cc2ccc3ccccc3c2)NC(=O)[C@H](CCCNC(=N)N)NC(=O)[C@H]1CCCNC(=O)c1ccc(NC(=O)CNC(=O)CN2CCN(CC(=O)O)CCN(CC(=O)O)CCN(CC(=O)O)CC2)cc1` [Compound 10, yorn′(ABS, G, DOTA)RNalG], the IC50 worked out at 88.8 ± 18.4 nM.

With `CN1C(=O)[C@@H](Cc2ccc(O)cc2)NC(=O)CNC(=O)[C@H](Cc2ccc3ccccc3c2)NC(=O)[C@H](CCCNC(=N)N)NC(=O)[C@H]1CCCNC(=O)c1ccc(NC(=O)CCCCNC(=O)CN2CCN(CC(=O)O)CCN(CC(=O)O)CCN(CC(=O)O)CC2)cc1` [Compound 18, yorn′(ABS, AVS, DOTA)RNalG], the IC50 turned out to be 121 ± 17 nM.

Take `CN1C(=O)[C@@H](Cc2ccc(O)cc2)NC(=O)CNC(=O)[C@H](Cc2ccc3ccccc3c2)NC(=O)[C@H](CCCNC(=N)N)NC(=O)[C@H]1CCCNC(=O)CN1CCN2CCN3CCN(CC1)CC(=O)[O][Ga]([O]C(=O)C2)[O]C(=O)C3` [Compound 21, yorn′(DOTA, Ga)RNalG] (cyclo([2Nal]G[dY][dNMeOrn](DOTA(Ga))R)): the IC50 was 289 nM.

Consider `CN1C(=O)[C@@H](Cc2ccc(O)cc2)NC(=O)CNC(=O)[C@H](Cc2ccc3ccccc3c2)NC(=O)[C@H](CCCNC(=N)N)NC(=O)[C@H]1CCCNC(=O)c1ccc(NC(=O)CCNC(=O)CN2CCN(CC(=O)O)CCN(CC(=O)O)CCN(CC(=O)O)CC2)cc1` [Compound 1, yorn′(ABS, betaAla, DOTA)RNalG] (cyclo([dY][dNMeOrn]([4Abz-βAla-DOTA])R[2Nal]G)), for which the IC50 came out at 37.6 ± 14.7 nM.

With `CN1C(=O)[C@@H](Cc2ccc(O)cc2)NC(=O)CNC(=O)[C@H](Cc2ccc3ccccc3c2)NC(=O)[C@H](CCCNC(=N)N)NC(=O)[C@H]1CCCNC(=O)c1ccc(NC(=O)CN2CCN3CCN4CCN(CC2)CC(=O)[O][Ga]([O]C(=O)C3)[O]C(=O)C4)cc1` [Compound 17, yorn′(ABS, DOTA, Ga)RNalG] (cyclo([2Nal]G[dY][dNMeOrn]([4Abz-DOTA(Ga)])R)), the concentration for half-maximal inhibition (IC50) was 11.5 ± 4.4 nM.

Regarding `CN1C(=O)[C@@H](Cc2ccc(O)cc2)NC(=O)CNC(=O)[C@H](Cc2ccc3ccccc3c2)NC(=O)[C@H](CCCNC(=N)N)NC(=O)[C@H]1CCCNC(=O)CCCCNC(=O)CCCCNC(=O)CN1CCN2CCN3CCN(CC1)CC(=O)[O][In]([O]C(=O)C2)[O]C(=O)C3` [Compound 23, yorn′(AVS, AVS, DOTA, In)RNalG] (cyclo([2Nal]G[dY][dNMeOrn]([Ava-Ava-DOTA(In)])R)), the IC50 came to 123 ± 25 nM.

As for `CN1C(=O)[C@@H](Cc2ccc(O)cc2)NC(=O)CNC(=O)[C@H](Cc2ccc3ccccc3c2)NC(=O)[C@H](CCCNC(=N)N)NC(=O)[C@H]1CCCNC(=O)CNC(=O)COCCOCCNC(=O)CN1CCN2CCN3CCN(CC1)CC(=O)[O][In]([O]C(=O)C2)[O]C(=O)C3` [Compound 26, yorn′(G, Trigas, DOTA, In)RNalG] (cyclo([2Nal]G[dY][dNMeOrn]([Gly-AEEA-DOTA(In)])R)), the IC50 amounted to 457 nM.

With `CN1C(=O)[C@@H](Cc2ccc(O)cc2)NC(=O)CNC(=O)[C@H](Cc2ccc3ccccc3c2)NC(=O)[C@H](CCCNC(=N)N)NC(=O)[C@H]1CCCNC(=O)c1ccc(NC(=O)CN2CCN(CC(=O)O)CCN(CC(=O)O)CCN(CC(=O)O)CC2)cc1` (single isomer, unassigned) [Compound 13, yorn′(ABS, DOTA, Ga)RNalG], the IC50 was 11.5 ± 4.4 nM.

On to `CN1C(=O)[C@@H](Cc2ccc(O)cc2)NC(=O)CNC(=O)[C@H](Cc2ccc3ccccc3c2)NC(=O)[C@H](CCCNC(=N)N)NC(=O)[C@H]1CCCNC(=O)c1ccc(NC(=O)CN2CCN3CCN4CCN(CC2)CC(=O)[O][In]([O]C(=O)C3)[O]C(=O)C4)cc1` [Compound 16, yorn′(ABS, DOTA, In)RNalG] (cyclo([2Nal]G[dY][dNMeOrn]([4Abz-DOTA(In)])R)), for which the IC50 worked out at 105 nM.

On to `CN1C(=O)[C@@H](Cc2ccc(O)cc2)NC(=O)CNC(=O)[C@H](Cc2ccc3ccccc3c2)NC(=O)[C@H](CCCNC(=N)N)NC(=O)[C@H]1CCCNC(=O)CCCCNC(=O)CCCCNC(=O)CN1CCN2CCN3CCN(CC1)CC(=O)[O][Ga]([O]C(=O)C2)[O]C(=O)C3` [Compound 24, yorn′(AVS, AVS, DOTA, Ga)RNalG] (cyclo([2Nal]G[dY][dNMeOrn]([Ava-Ava-DOTA(Ga)])R)), for which the IC50 is 89.7 ± 18.3 nM.

The same test, now with this note: read-out: IC50 [nM] (Binding Data).
On to `CN1C(=O)[C@@H](Cc2ccc(O)cc2)NC(=O)CNC(=O)[C@H](Cc2ccc3ccccc3c2)NC(=O)[C@H](CCCNC(=N)N)NC(=O)[C@H]1CCCNC(=O)c1ccc(CNC(=O)CN2CCN(CC(=O)O)CCN(CC(=O)O)CCN(CC(=O)O)CC2)cc1` (single isomer, unassigned) [Compound 8, yorn′(AMBS, DOTA, In)RNalG], for which the IC50 was 44.9 ± 10.4 nM.

As for `CN1C(=O)[C@@H](Cc2ccc(O)cc2)NC(=O)CNC(=O)[C@H](Cc2ccc3ccccc3c2)NC(=O)[C@H](CCCNC(=N)N)NC(=O)[C@H]1CCCNC(=O)c1ccc(NC(=O)CCCCCNC(=O)CN2CCN(CC(=O)O)CCN(CC(=O)O)CCN(CC(=O)O)CC2)cc1` [Compound 14, yorn′(ABS, Ahx, DOTA)RNalG], the IC50 was more than 1000 nM.
